Results on three compounds are retold here after ChEMBL document CHEMBL1137024, “Acyl-CoA: cholesterol acyltransferase inhibitory activities of fatty acid amides isolated from Mylabris phalerate Pallas” (Bioorg Med Chem Lett, 2004).

Molecules are shown by their SMILES.

Test [1] deals with T1, Sterol O-acyltransferase 1 (Rattus norvegicus, UniProt O70536).
T1 sequence (O70536 whole entry): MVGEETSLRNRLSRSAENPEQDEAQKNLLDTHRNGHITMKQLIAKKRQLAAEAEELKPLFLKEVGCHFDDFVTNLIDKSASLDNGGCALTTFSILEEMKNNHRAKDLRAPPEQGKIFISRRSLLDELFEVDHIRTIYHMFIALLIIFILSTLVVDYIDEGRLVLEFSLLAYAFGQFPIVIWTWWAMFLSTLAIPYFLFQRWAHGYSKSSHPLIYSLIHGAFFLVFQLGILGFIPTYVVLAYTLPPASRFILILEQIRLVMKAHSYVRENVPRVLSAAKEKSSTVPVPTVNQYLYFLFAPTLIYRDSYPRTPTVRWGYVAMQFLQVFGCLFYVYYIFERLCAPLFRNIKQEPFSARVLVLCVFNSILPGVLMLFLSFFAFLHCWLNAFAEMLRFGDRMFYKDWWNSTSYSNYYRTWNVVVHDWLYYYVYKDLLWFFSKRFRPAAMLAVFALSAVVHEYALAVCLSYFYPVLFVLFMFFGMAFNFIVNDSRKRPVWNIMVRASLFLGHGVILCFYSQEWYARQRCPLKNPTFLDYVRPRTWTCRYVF
Description: Inhibitory activity against rat liver microsomal Acyl coenzyme A:cholesterol acyltransferase. (In general: Microsomes from liver hold many membrane-bound enzymes, among them those of drug oxidation.)

Test [2] has as its target Sterol O-acyltransferase 2 (Homo sapiens, UniProt O75908). Description: Inhibitory activity against human Acyl coenzyme A:cholesterol acyltransferase 2.
In test [3] the target is T2, Sterol O-acyltransferase 1 (Homo sapiens, UniProt P35610).
T2 sequence (P35610 whole entry): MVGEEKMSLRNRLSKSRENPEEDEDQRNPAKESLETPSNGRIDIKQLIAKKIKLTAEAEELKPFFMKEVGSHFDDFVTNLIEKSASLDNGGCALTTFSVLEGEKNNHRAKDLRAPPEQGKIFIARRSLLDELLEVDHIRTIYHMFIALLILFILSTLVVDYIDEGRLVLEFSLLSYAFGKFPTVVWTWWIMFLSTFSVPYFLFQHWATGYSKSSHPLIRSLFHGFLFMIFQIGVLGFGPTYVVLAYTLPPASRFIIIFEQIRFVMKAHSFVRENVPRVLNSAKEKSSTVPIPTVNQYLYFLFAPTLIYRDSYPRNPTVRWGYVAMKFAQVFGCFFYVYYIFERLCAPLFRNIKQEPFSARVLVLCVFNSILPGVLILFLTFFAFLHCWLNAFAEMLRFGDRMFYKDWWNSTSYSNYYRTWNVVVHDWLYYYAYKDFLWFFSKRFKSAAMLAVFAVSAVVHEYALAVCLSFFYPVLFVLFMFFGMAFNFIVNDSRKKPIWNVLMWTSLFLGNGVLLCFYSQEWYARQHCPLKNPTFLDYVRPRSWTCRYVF
Briefly: Inhibitory activity against human Acyl coenzyme A:cholesterol acyltransferase 1.

A word on the IC50: it is the concentration at which inhibition is half-maximal.

Chain of Sterol O-acyltransferase 2 (O75908 whole entry, looked up): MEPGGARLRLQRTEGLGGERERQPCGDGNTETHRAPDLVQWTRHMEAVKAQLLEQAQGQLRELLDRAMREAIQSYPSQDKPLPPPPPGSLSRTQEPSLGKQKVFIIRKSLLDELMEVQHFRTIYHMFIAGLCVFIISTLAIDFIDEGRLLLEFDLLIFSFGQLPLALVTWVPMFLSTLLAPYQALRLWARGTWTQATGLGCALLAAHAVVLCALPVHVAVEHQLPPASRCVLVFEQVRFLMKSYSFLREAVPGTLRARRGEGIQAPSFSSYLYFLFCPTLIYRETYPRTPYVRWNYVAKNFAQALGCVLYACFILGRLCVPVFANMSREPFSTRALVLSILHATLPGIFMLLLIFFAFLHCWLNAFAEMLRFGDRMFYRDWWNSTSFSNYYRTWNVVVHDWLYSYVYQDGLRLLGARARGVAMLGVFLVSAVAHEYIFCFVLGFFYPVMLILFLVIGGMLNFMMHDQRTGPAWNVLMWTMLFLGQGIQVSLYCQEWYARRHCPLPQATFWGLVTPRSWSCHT

The compound `CC(=O)OC[C@@]1(C)[C@@H]2C[C@H](OC(C)=O)[C@@]3(C)Oc4cc(-c5cccnc5)oc(=O)c4[C@H](O)[C@@H]3[C@@]2(C)CC[C@@H]1OC(C)=O` [PYRIPYROPENE A] came in with an IC50 in test [1] of 0.17 µM.
Regarding `CCCCC/C=C\C/C=C\CCCCCCCC(=O)O` [LINOLEIC ACID], the IC50 in test [2], in test [1] and in test [3] was greater than 1000 µM throughout.
Take `CCCCCCCC/C=C\CCCCCCCC(=O)O` [OLEIC ACID]: the half-maximal inhibitory concentration (IC50) in test [2], in test [1] and in test [3] was greater than 1000 µM throughout.
